This is an account of results in paper PMC3763546, “Structural insight into negative DNA supercoiling by DNA gyrase, a bacterial type 2A DNA topoisomerase” (Nucleic Acids Research, 2013).

The assay concerns the target T1, GyrBA-fus (full-length T. thermophilus DNA gyrase GyrB-GyrA fusion) (Thermus thermophilus, UniProt Q5SHZ4+Q5SIL4).
T1 construct: full-length GyrB fused at its C-terminus to the N-terminus of full-length GyrA by a G-D-L linker; N-terminal His10 tag with PreScission site; E. coli BL21(DE3); dimer (A2B2 equivalent) of 320377 Da
Put plainly: native ESI mass spectrometry. The class given is binding. The conditions noted are these: 200 mM ammonium acetate pH 7.5; two ADPNP per fusion dimer; ATPase domain (GyrB) site; also in the holoenzyme cryo-EM sample (16.9 Å).

Regarding `Nc1ncnc2c1ncn2[C@@H]1O[C@H](COP(=O)(O)OP(=O)(O)NP(=O)(O)O)[C@@H](O)[C@H]1O` [ADPNP], the “native ESI mass spectrometry” value is reported as “showing the addition of two ADPNP molecules per GyrBA-fus dimer”.
